In BindingDB's records for doi:10.1007/s002100000217 (Croissy-Sur-Seine Paris, 2000) one finds Ki data, which are given here for four compounds.

The test addresses D(3) dopamine receptor (Homo sapiens, UniProt P35462).

Molecules are shown by their SMILES. Where “and” joins values, the source holds several entries; their conditions need not be identical. Identical values can stand only once.

Chain of D(3) dopamine receptor (P35462 as listed by the source): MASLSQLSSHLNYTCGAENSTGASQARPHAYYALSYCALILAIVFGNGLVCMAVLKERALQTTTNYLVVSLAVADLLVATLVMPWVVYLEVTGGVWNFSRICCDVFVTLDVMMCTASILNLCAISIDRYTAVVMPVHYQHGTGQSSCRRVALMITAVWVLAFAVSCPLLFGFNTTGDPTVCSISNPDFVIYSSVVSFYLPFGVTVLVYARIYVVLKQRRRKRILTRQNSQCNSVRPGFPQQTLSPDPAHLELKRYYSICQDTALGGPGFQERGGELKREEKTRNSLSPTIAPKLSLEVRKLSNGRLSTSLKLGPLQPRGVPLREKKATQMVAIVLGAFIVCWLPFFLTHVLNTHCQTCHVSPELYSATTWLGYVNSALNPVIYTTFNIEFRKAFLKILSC

The term Ki denotes the equilibrium dissociation constant of an inhibitor or competing ligand from its target. The low end stands for tighter binding, the high end for weaker binding. Regarding `CCCN1CCO[C@@H]2c3cc(O)ccc3OC[C@H]21`, the Ki is 2.14 nM and 7.59 nM and 3.55 nM. For the compound `CCCN(CCC)C1CCc2cc3c(cc2C1)OCC3` (centres undefined), the Ki was 12.3 nM and 33.1 nM and 11.5 nM.

For the compound `CCCN(CCC)C1CCc2cc(CS(=O)(=O)c3ccc(OC)cc3)ccc2C1` (centres undefined) [GR218231], the Ki was 1.12 nM and 1.95 nM and 1.38 nM. Regarding `N#Cc1ccc2c(c1)[C@H]1CN(CCCCNC(=O)c3ccc(-c4ccccc4)cc3)C[C@@H]1CO2` [S33084], the Ki is 0.302 nM and 0.933 nM and 0.372 nM.
